From BindingDB's records for doi:10.1021/jm401195n (Fudan University, 2013)

Target: Indoleamine 2,3-dioxygenase 1 (Homo sapiens, UniProt P14902)
Assay: Inhibition of human IDO1 expressed in HEK293 cells assessed as kynurenine release after 5 hrs by spectrophotometry

Sequence of Indoleamine 2,3-dioxygenase 1 (P14902 whole entry): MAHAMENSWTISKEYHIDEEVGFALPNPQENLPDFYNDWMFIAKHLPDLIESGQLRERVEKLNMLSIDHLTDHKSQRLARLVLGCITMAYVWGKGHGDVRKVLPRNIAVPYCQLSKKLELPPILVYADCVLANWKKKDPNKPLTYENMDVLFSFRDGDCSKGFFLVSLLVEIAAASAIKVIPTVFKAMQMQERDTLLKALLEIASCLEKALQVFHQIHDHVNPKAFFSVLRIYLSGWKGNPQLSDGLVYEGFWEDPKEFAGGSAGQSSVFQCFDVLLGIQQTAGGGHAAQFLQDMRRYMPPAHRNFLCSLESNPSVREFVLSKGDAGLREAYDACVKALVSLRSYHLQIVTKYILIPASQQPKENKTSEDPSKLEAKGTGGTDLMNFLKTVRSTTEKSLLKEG

Structure (SMILES): O=C1c2cc([N+](=O)[O-])ccc2-n2c1nc1ccccc1c2=O
- IC50: 0.018 nM
